We go through 38 compounds from ChEMBL document CHEMBL1134198, “Structure-activity relationships of quinazoline derivatives: dual-acting compounds with inhibitory activities toward both TNF-alpha production and T cell proliferation” (Bioorg Med Chem Lett, 2001).

Where only a bound is given, the exact number is not on record here.

Experiment [1] is described as follows: Inhibitory concentration against TNF-alpha production from human peripheral blood mononuclear cells stimulated by LPS. Format: functional.
Experiment [2] in a line: Inhibitory concentration against growth of LPS stimulated human peripheral blood mononuclear cells. The experiment is classed as functional.
The test system of experiment [3] is T-cell. Nature of the experiment: Inhibitory concentration against T cell proliferation using concanavalin A stimulated mice spleen cells. The experiment is classed as functional, cell-based. The conditions noted are these: Mus musculus.

What is called IC50 is the concentration that inhibits the measured activity by half. With `CN(C)c1cc2ncnc(NCCc3ccc(Cl)cc3)c2cc1[N+](=O)[O-]`, the IC50 is 19.4 µM in experiment [1] (Homo sapiens), 27.3 µM in experiment [2] (Homo sapiens) and 8.6 µM in experiment [3].
The matching figures for `O=[N+]([O-])c1cc2c(NCCc3ccc(Cl)cc3)ncnc2cc1N1CCCCC1`: more than 30 µM, more than 30 µM and more than 10 µM.
As to `Clc1ccc(CCNc2nc(Cl)nc3ccccc23)cc1`, the IC50 is more than 30 µM in experiment [1] (Homo sapiens), more than 30 µM in experiment [2] (Homo sapiens) and 1.2 µM in experiment [3].
Regarding `Nc1ccc2c(NCCc3ccc(Cl)cc3)ncnc2c1`, the IC50 is more than 30 µM in experiment [1] (Homo sapiens), more than 30 µM in experiment [2] (Homo sapiens) and 3.4 µM in experiment [3].
As for `O=[N+]([O-])c1cc2c(NCCc3ccc(Cl)cc3)ncnc2cc1N1CCOCC1`, the IC50 in experiment [1] (Homo sapiens) is 24.8 µM; in experiment [2] (Homo sapiens) it was 22.5 µM; in experiment [3] it was 8.3 µM.
Turning to `O=C(O)c1cc(/N=N/c2ccc(S(=O)(=O)Nc3ccccn3)cc2)ccc1O` [SULFASALAZINE], the results for the IC50 in experiment [1] (Homo sapiens), in experiment [2] (Homo sapiens) and in experiment [3] were more than 30 µM, more than 30 µM and more than 10 µM, respectively.
As to `CNc1ccc2ncnc(NCCc3ccc(Cl)cc3)c2c1`, the IC50 was more than 30 µM in experiment [1] (Homo sapiens), more than 30 µM in experiment [2] (Homo sapiens) and more than 10 µM in experiment [3].
For `O=[N+]([O-])c1cc2c(NCCc3ccc(Cl)cc3)ncnc2cc1N1CCN(c2ccccc2)CC1`, the figures for the IC50 in experiment [1] (Homo sapiens), in experiment [2] (Homo sapiens) and in experiment [3] were more than 30 µM, more than 30 µM and more than 10 µM, respectively.
In the case of `Oc1ccc2ncnc(NCCc3ccc(Cl)cc3)c2c1`, the IC50 in experiment [1] (Homo sapiens) is more than 30 µM; in experiment [2] (Homo sapiens), more than 30 µM; in experiment [3] it was 1.4 µM.
As to `CS(=O)(=O)N1CCN(c2cc3ncnc(NCCc4ccc(Cl)cc4)c3cc2[N+](=O)[O-])CC1`, the IC50 in experiment [1] (Homo sapiens) was more than 30 µM; in experiment [2] (Homo sapiens), 4.5 µM; in experiment [3], 4.3 µM.
Turning to `Clc1ccc(CCNc2ncnc3ccc(OCc4ccccc4)cc23)cc1`, the IC50 in experiment [1] (Homo sapiens) is more than 30 µM; in experiment [2] (Homo sapiens), more than 30 µM; in experiment [3] it was more than 10 µM.
Turning to `Clc1ccc(CCNc2ncnc3ccccc23)cc1`, the results for the IC50 in experiment [1] (Homo sapiens), in experiment [2] (Homo sapiens) and in experiment [3] were more than 30 µM, more than 30 µM and 0.5 µM, respectively.
As to `Clc1ccc(CCNc2nc(-c3ccccc3)nc3ccccc23)cc1`, the IC50 in experiment [1] (Homo sapiens) was more than 30 µM; in experiment [2] (Homo sapiens) it was more than 30 µM; in experiment [3] it was more than 10 µM.
As to `C[C@@H]1C[C@H]2[C@@H]3CCC4=CC(=O)C=C[C@]4(C)[C@@]3(F)[C@@H](O)C[C@]2(C)[C@@]1(O)C(=O)CO` [DEXAMETHASONE], the IC50 stood at 0.01 µM in experiment [1] (Homo sapiens), 0.04 µM in experiment [2] (Homo sapiens) and 0.005 µM in experiment [3].
For the compound `O=[N+]([O-])c1ccc2ncnc(NCCc3ccc(Cl)cc3)c2c1`, the IC50 in experiment [1] (Homo sapiens) is 14.6 µM; in experiment [2] (Homo sapiens), more than 30 µM; in experiment [3] it was 3.2 µM.
For `Clc1ccc(CCNc2ncnc3cc(Cl)ccc23)cc1`, the IC50 is more than 30 µM in experiment [1] (Homo sapiens), more than 30 µM in experiment [2] (Homo sapiens) and more than 10 µM in experiment [3].
Consider `Clc1ccc(CCNc2ncnc3ccc(NCc4ccccc4)cc23)cc1`, for which the IC50 is more than 30 µM in experiment [1] (Homo sapiens), more than 30 µM in experiment [2] (Homo sapiens) and more than 10 µM in experiment [3].
Regarding `O=[N+]([O-])c1ccc2c(NCCc3ccc(Cl)cc3)ncnc2c1`, the IC50 in experiment [1] (Homo sapiens) is more than 30 µM; in experiment [2] (Homo sapiens), more than 30 µM; in experiment [3], 5.6 µM.
For `Clc1ccc(CCNc2ncnc3ccc(Cl)cc23)cc1`, the IC50 in experiment [1] (Homo sapiens) is more than 30 µM; in experiment [2] (Homo sapiens), more than 30 µM; in experiment [3], more than 10 µM.
Consider `COc1cc2ncnc(NCCc3ccc(Cl)cc3)c2cc1OC`, for which the IC50 in experiment [1] (Homo sapiens) is more than 30 µM; in experiment [2] (Homo sapiens), more than 30 µM; in experiment [3], 1.4 µM.
In the case of `CN1CCN(c2cc3ncnc(NCCc4ccc(Cl)cc4)c3cc2[N+](=O)[O-])CC1`, the results for the IC50 in experiment [1] (Homo sapiens), in experiment [2] (Homo sapiens) and in experiment [3] were 1.4 µM, 22.1 µM and 1.2 µM, respectively.
With `O=[N+]([O-])c1cc2c(NCCc3ccc(Cl)cc3)ncnc2cc1N1CCNCC1`, the IC50 in experiment [1] (Homo sapiens) is 0.8 µM; in experiment [2] (Homo sapiens), 12.1 µM; in experiment [3] it was 1.1 µM.
AURANOFIN: the IC50 in experiment [1] and in experiment [2] was more than 30 µM each time.
On to `COc1cc2ncnc(NCCc3ccc(Cl)cc3)c2cc1[N+](=O)[O-]`, for which the IC50 in experiment [1] (Homo sapiens) and in experiment [2] (Homo sapiens) was more than 30 µM each time.
Take `O=[N+]([O-])c1cc2c(NCCc3ccc(Cl)cc3)ncnc2cc1N1CCCNCC1`: the IC50 is 2.1 µM in experiment [1] (Homo sapiens), 9.8 µM in experiment [2] (Homo sapiens) and 0.9 µM in experiment [3].
Consider `Fc1cc2ncnc(NCCc3ccc(Cl)cc3)c2cc1F`, for which the IC50 in experiment [1] (Homo sapiens) and in experiment [2] (Homo sapiens) was more than 30 µM throughout.
Regarding `COc1nc(NCCc2ccc(Cl)cc2)c2ccccc2n1`, the IC50 in experiment [1] (Homo sapiens) is more than 30 µM; in experiment [2] (Homo sapiens), more than 30 µM; in experiment [3] it was more than 10 µM.
Regarding `Cc1nc(NCCc2ccc(Cl)cc2)c2ccccc2n1`, the IC50 in experiment [1] (Homo sapiens) was more than 30 µM; in experiment [2] (Homo sapiens), more than 30 µM; in experiment [3], 0.2 µM.
Turning to `CCOc1cc2ncnc(NCCc3ccc(Cl)cc3)c2cc1[N+](=O)[O-]`, the IC50 in experiment [1] (Homo sapiens) and in experiment [2] (Homo sapiens) was more than 30 µM in each case.
On to `Cc1ccc2ncnc(NCCc3ccc(Cl)cc3)c2c1`, for which the IC50 in experiment [1] (Homo sapiens) was more than 30 µM; in experiment [2] (Homo sapiens), more than 30 µM; in experiment [3] it was 0.8 µM.
On to `O=[N+]([O-])c1cc2c(NCCc3ccc(Cl)cc3)ncnc2cc1Cl`, for which the IC50 in experiment [1] (Homo sapiens) is more than 30 µM; in experiment [2] (Homo sapiens), more than 30 µM; in experiment [3], more than 10 µM.
Turning to `Clc1ccc(CCNc2ncnc3ccc(Br)cc23)cc1`, the IC50 was more than 30 µM in experiment [1] (Homo sapiens), more than 30 µM in experiment [2] (Homo sapiens) and 4.8 µM in experiment [3].
In the case of `COc1ccc(C2CNC(=O)C2)cc1OC1CCCC1` (centres undefined) [ROLIPRAM], the IC50 is 0.5 µM in experiment [1] (Homo sapiens), more than 30 µM in experiment [2] (Homo sapiens) and more than 10 µM in experiment [3].
On to `CC(C)(S)[C@@H](N)C(=O)O` [PENICILLAMINE], for which the IC50 in experiment [1] (Homo sapiens) and in experiment [2] (Homo sapiens) was more than 30 µM in each case.
For the compound `O=[N+]([O-])c1cc2c(NCCc3ccc(Cl)cc3)ncnc2cc1N1CCN(c2ccccn2)CC1`, the IC50 in experiment [1] (Homo sapiens) is more than 30 µM; in experiment [2] (Homo sapiens), more than 30 µM; in experiment [3], more than 10 µM.
As for `CCNc1cc2ncnc(NCCc3ccc(Cl)cc3)c2cc1[N+](=O)[O-]`, the IC50 is more than 30 µM in experiment [1] (Homo sapiens), more than 30 µM in experiment [2] (Homo sapiens) and more than 10 µM in experiment [3].
For `Nc1ccc2ncnc(NCCc3ccc(Cl)cc3)c2c1`, the IC50 in experiment [1] (Homo sapiens) is more than 30 µM; in experiment [2] (Homo sapiens) it was more than 30 µM; in experiment [3] it was 2.6 µM.
On to `O=CNc1ccc2ncnc(NCCc3ccc(Cl)cc3)c2c1`, for which the IC50 in experiment [1] (Homo sapiens) is more than 30 µM; in experiment [2] (Homo sapiens) it was more than 30 µM; in experiment [3], more than 10 µM.
